Here are results for 19 compounds from patent US20100249093A1, “Substituted Heteroarylpiperidine Derivatives As Melanocortin-4 Receptor Modulators” (SANTHERA PHARMACEUTICALS (SCHWEIZ) AG, priority 2007, published 2010).

Broadly, the IC50 is the concentration at which inhibition is half-maximal. In general, EC50 refers to the midpoint of the concentration-response curve.

The target in test [1] is T1, human melanocortin-4 receptor (MC-4R) (Homo sapiens, UniProt P32245).
T1 construct: expressed in transfected cells; host or cells: HEK293
T1 sequence (P32245 whole entry): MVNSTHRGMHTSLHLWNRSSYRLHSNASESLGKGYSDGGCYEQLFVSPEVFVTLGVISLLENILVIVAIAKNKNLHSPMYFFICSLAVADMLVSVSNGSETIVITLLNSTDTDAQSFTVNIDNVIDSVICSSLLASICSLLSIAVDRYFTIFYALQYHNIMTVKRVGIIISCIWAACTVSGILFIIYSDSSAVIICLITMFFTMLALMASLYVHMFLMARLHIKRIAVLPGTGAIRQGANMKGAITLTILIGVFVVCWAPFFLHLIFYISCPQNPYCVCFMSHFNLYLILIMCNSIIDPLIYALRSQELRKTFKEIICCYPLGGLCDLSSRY
In words: Functional assay: agonistic activity, cAMP production in membrane preparations compared with NDP-alpha-MSH, fluorescence polarization. It is filed as biochemical. Particulars: for Emax: cAMP produced compared to stimulation with NDP-alpha-MSH, read-out: % activation functional assay; for EC50: cAMP production, membrane preparations from HEK293 cells expressing human MC-4R, read-out: hMC-4R functional assay EC50.

In test [2] the target is T1, human melanocortin-4 receptor (MC-4R). Kind of test: Membrane binding assay: competition with fluorescence labeled NDP-alpha-MSH, fluorescence polarization. The conditions noted are these: HEK293 cell membrane preparations expressing human MC-4R, read-out: hMC-4R binding assay IC50. A general note: Polarisation of emitted light reports the rotation of a fluorescent probe.

Consider `CC[C@H](COc1cccnc1C1CCN(C(=O)[C@@H](Cc2ccc(Cl)cc2Cl)NC(=O)N2CC(O)(C3CC3)C2)CC1)N(C)C` [Example 123], for which, in test [1], the Emax is 3%. The IC50 in test [2] was at most 100 nM.

As to `O=C(N[C@H](Cc1ccc(Cl)cc1Cl)C(=O)N1CCC(c2ncccc2OCCN2CCCC2)CC1)N1CCCC1` [Example 14], the Emax in test [1] is 0%. In addition, in test [2], the IC50 was in the range of 100 to 1000 nM.

`CC[C@H](COc1cccnc1C1CCN(C(=O)[C@@H](Cc2ccc(Cl)cc2Cl)NC(=O)N2CC[C@@H](CO)C2)CC1)N(C)C` [Example 115]: the Emax in test [1] is -8%. Also, the IC50 in test [2] is at most 100 nM.

For `CC[C@H](COc1cccnc1C1CCN(C(=O)[C@@H](Cc2ccc(Cl)cc2Cl)NC(=O)N2CC[C@@H](F)C2)CC1)N1CCCC1` [Example 81], the Emax in test [1] turned out to be 0%. Moreover, the IC50 in test [2] was at most 100 nM.

As to `CN1CCN(C)CC(Oc2cccnc2C2CCN(C(=O)[C@@H](Cc3ccc(Cl)cc3Cl)NC(=O)N3CCCC3)CC2)C1` [Example 56], in test [1], the Emax is -5%. In addition, the 50% inhibitory concentration (IC50) in test [2] was at most 100 nM.

With `CC[C@H](COc1cccnc1C1CCN(C(=O)[C@@H](Cc2ccc(Cl)cc2Cl)NC(=O)N(C)CC)CC1)N1CCCC1` [Example 79], in test [1], the Emax is 0%. Besides, the 50% inhibitory concentration (IC50) in test [2] is at most 100 nM.

For the compound `C[C@@H](CN1CCCC1)Oc1cccnc1C1CCN(C(=O)[C@@H](Cc2ccc(Cl)cc2Cl)NC(=O)N2CCCC2)CC1` [Example 16], the Emax in test [1] worked out at 0%. The IC50 in test [2] is at most 100 nM.

With `CC[C@@H](CN1CCCC1)Oc1ccncc1C1CCN(C(=O)[C@@H](Cc2ccc(Cl)cc2Cl)NC(=O)N2CCCC2)CC1` [Example 12], the Emax in test [1] is 0%. Moreover, the half-maximal inhibitory concentration (IC50) in test [2] was at most 100 nM.

For the compound `CC[C@@H](CN1CCCC1)Oc1cccnc1C1CCN(C(=O)[C@@H](Cc2ccc(Cl)cc2Cl)NC(=O)N2CCCC2)CC1` [Example 17], the Emax in test [1] is 0%. Besides, the IC50 in test [2] was at most 100 nM.

Take `CN(C)C(C)(C)COc1cccnc1C1CCN(C(=O)[C@@H](Cc2ccc(Cl)cc2Cl)NC(=O)N2CCCC2)CC1` [Example 20]: in test [1], the Emax was 0%. Also, the half-maximal inhibitory concentration (IC50) in test [2] is at most 100 nM.

On to `CC[C@@H](CN(C)C)Oc1cccnc1C1CCN(C(=O)[C@@H](Cc2ccc(Cl)cc2Cl)NC(=O)N2CC[C@H](O)C2)CC1` [Example 137], for which, in test [1], the Emax worked out at 8%. The concentration for half-maximal inhibition (IC50) in test [2] was at most 100 nM.

Consider `CN1CC[C@H](COc2cccnc2C2CCN(C(=O)[C@@H](Cc3ccc(Cl)cc3Cl)NC(=O)N3CCCC3)CC2)C1` [Example 51], for which the Emax in test [1] amounted to 0%. Besides, the IC50 in test [2] lay in the range of 100 to 1000 nM.

With `Cc1ccc(C2CCN(C(=O)[C@@H](Cc3ccc(F)cc3F)NC(=O)N3CCCC3)CC2)c(N2CCN(C)CC2)n1` [Example 67], in test [1], the Emax was determined as 33% and the 50% effective concentration (EC50) is over 1000 nM. The IC50 in test [2] was over 1000 nM.

As for `CN1CCOC[C@@H]1COc1cccnc1C1CCN(C(=O)[C@@H](Cc2ccc(Cl)cc2Cl)NC(=O)N2CCCC2)CC1` [Example 55], the Emax in test [1] was found to be 2%. Further, in test [2], the IC50 was 100 to 1000 nM.

Regarding `CC[C@H](COc1cccnc1C1CCN(C(=O)[C@@H](Cc2ccc(Cl)cc2Cl)NC(=O)N2CCCO2)CC1)N1CCCC1` [Example 94], in test [1], the Emax is 0%. Further, the 50% inhibitory concentration (IC50) in test [2] is at most 100 nM.

With `CC[C@@H](CN(C)C)Oc1cccnc1C1CCN(C(=O)[C@@H](Cc2ccc(Cl)cc2Cl)NC(=O)N2CC[C@@H](O)C2)CC1` [Example 139], the Emax in test [1] is -10%. Moreover, the half-maximal inhibitory concentration (IC50) in test [2] is at most 100 nM.

As for `CN1CCO[C@@H](COc2cccnc2C2CCN(C(=O)[C@@H](Cc3ccc(Cl)cc3Cl)NC(=O)N3CCCC3)CC2)C1` [Example 53], the Emax in test [1] was 1%. Also, in test [2], the IC50 was over 1000 nM.

`CC[C@H](COc1cc(Cl)cnc1C1CCN(C(=O)[C@@H](Cc2ccc(C)cc2C)NC(=O)N2CC(O)C2)CC1)N(C)C` [Example 74]: in test [1], the Emax was -5%. Moreover, the concentration for half-maximal inhibition (IC50) in test [2] is at most 100 nM.

As to `COC[C@@H](CN(C)C)Oc1cccnc1C1CCN(C(=O)[C@@H](Cc2ccc(Cl)cc2Cl)NC(=O)N2CCCC2)CC1` [Example 47], in test [1], the Emax is -36% and the EC50 fell in the range of 100 to 1000 nM. In addition, the 50% inhibitory concentration (IC50) in test [2] is at most 100 nM.
